PubChem BioAssay (NCI)
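Dose response: 5 concentrations. Exposure: 48 h. Format: 96-well plates. Endpoint: linear interpolation; highest concentration if not reached. At the GI50, growth is halved. TGI: total growth inhibition.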

What was measured:
Test in all cases: NCI anticancer screen, dose series, 48 h; in the data active = GI50 below about 0.43 µM; inactive = the rest
786-0 renal = system: 786-0 renal
A498 renal = system: A498 renal
A549 NSCLC = system: A549 NSCLC
ACHN renal = system: ACHN renal
BT-549 breast = system: BT-549 breast
CAKI-1 renal = system: CAKI-1 renal
CCRF-CEM leukemia = system: CCRF-CEM leukemia
COLO 205 colon = system: COLO 205 colon
DU-145 prostate = system: DU-145 prostate
EKVX NSCLC = system: EKVX NSCLC
HCC-2998 colon = system: HCC-2998 colon
HCT-116 colon = system: HCT-116 colon
HCT-15 colon = system: HCT-15 colon
HL-60(TB) leukemia = system: HL-60(TB) leukemia
HOP-62 NSCLC = system: HOP-62 NSCLC
HOP-92 NSCLC = system: HOP-92 NSCLC
HS 578T breast = system: HS 578T breast
HT29 colon = system: HT29 colon
IGROV1 ovarian = system: IGROV1 ovarian
K-562 leukemia = system: K-562 leukemia
KM12 colon = system: KM12 colon
LOX IMVI melanoma = system: LOX IMVI melanoma
M14 melanoma = system: M14 melanoma
MALME-3M melanoma = system: MALME-3M melanoma
MCF7 breast = system: MCF7 breast
MDA-MB-231 breast = system: MDA-MB-231 breast
MDA-MB-435 = system: MDA-MB-435
MOLT-4 leukemia = system: MOLT-4 leukemia
NCI-H226 lung = system: NCI-H226 lung
NCI-H23 lung = system: NCI-H23 lung
NCI-H460 lung = system: NCI-H460 lung
NCI-H522 lung = system: NCI-H522 lung
NCI/ADR-RES ovarian = system: NCI/ADR-RES ovarian
OVCAR-3 ovarian = system: OVCAR-3 ovarian
OVCAR-4 ovarian = system: OVCAR-4 ovarian
OVCAR-5 ovarian = system: OVCAR-5 ovarian
OVCAR-8 ovarian = system: OVCAR-8 ovarian
PC-3 prostate = system: PC-3 prostate
RPMI-8226 leukemia = system: RPMI-8226 leukemia
RXF 393 renal = system: RXF 393 renal
SF-268 CNS = system: SF-268 CNS
SF-295 CNS = system: SF-295 CNS
SF-539 CNS = system: SF-539 CNS
SK-MEL-2 melanoma = system: SK-MEL-2 melanoma
SK-MEL-28 melanoma = system: SK-MEL-28 melanoma
SK-MEL-5 melanoma = system: SK-MEL-5 melanoma
SK-OV-3 ovarian = system: SK-OV-3 ovarian
SN12C renal = system: SN12C renal
SNB-19 CNS = system: SNB-19 CNS
SNB-75 CNS = system: SNB-75 CNS
SR leukemia = system: SR leukemia
SW-620 colon = system: SW-620 colon
T-47D breast = system: T-47D breast
TK-10 renal = system: TK-10 renal
U251 CNS = system: U251 CNS
UACC-257 melanoma = system: UACC-257 melanoma
UACC-62 melanoma = system: UACC-62 melanoma
UO-31 renal = system: UO-31 renal

C#CCn1cccc1CNc1ccc(OC)cc1
> 100 µM: TGI (786-0 renal) | TGI (A498 renal) | TGI (A549 NSCLC) | TGI (ACHN renal) | TGI (BT-549 breast) | TGI (CAKI-1 renal) | TGI (CCRF-CEM leukemia) | TGI (COLO 205 colon) | TGI (DU-145 prostate) | TGI (EKVX NSCLC) | TGI (HCC-2998 colon) | TGI (HCT-116 colon) | TGI (HCT-15 colon) | TGI (HL-60(TB) leukemia) | TGI (HOP-62 NSCLC) | TGI (HOP-92 NSCLC) | TGI (HS 578T breast) | TGI (HT29 colon) | TGI (IGROV1 ovarian) | TGI (K-562 leukemia) | TGI (KM12 colon) | TGI (LOX IMVI melanoma) | TGI (M14 melanoma) | TGI (MALME-3M melanoma) | TGI (MCF7 breast) | TGI (MDA-MB-231 breast) | TGI (MDA-MB-435) | TGI (MOLT-4 leukemia) | TGI (NCI-H226 lung) | TGI (NCI-H23 lung) | TGI (NCI-H460 lung) | TGI (NCI-H522 lung) | TGI (NCI/ADR-RES ovarian) | TGI (OVCAR-3 ovarian) | TGI (OVCAR-4 ovarian) | TGI (OVCAR-5 ovarian) | TGI (OVCAR-8 ovarian) | TGI (PC-3 prostate) | TGI (RPMI-8226 leukemia) | TGI (RXF 393 renal) | TGI (SF-268 CNS) | TGI (SF-295 CNS) | TGI (SF-539 CNS) | TGI (SK-MEL-2 melanoma) | TGI (SK-MEL-28 melanoma) | TGI (SK-MEL-5 melanoma) | TGI (SK-OV-3 ovarian) | TGI (SN12C renal) | TGI (SNB-19 CNS) | TGI (SNB-75 CNS) | TGI (SR leukemia) | TGI (SW-620 colon) | TGI (T-47D breast) | TGI (TK-10 renal) | TGI (U251 CNS) | TGI (UACC-257 melanoma) | TGI (UACC-62 melanoma) | TGI (UO-31 renal)
inactive: GI50 (786-0 renal) > 100 µM | GI50 (A498 renal) 8.54 µM | GI50 (A549 NSCLC) > 100 µM | GI50 (ACHN renal) 97.2 µM | GI50 (BT-549 breast) 57 µM | GI50 (CAKI-1 renal) 50 µM | GI50 (CCRF-CEM leukemia) 41 µM | GI50 (COLO 205 colon) > 100 µM | GI50 (DU-145 prostate) > 100 µM | GI50 (EKVX NSCLC) 25.5 µM | GI50 (HCC-2998 colon) > 100 µM | GI50 (HCT-116 colon) 75.7 µM | GI50 (HCT-15 colon) > 100 µM | GI50 (HL-60(TB) leukemia) 34.6 µM | GI50 (HOP-62 NSCLC) > 100 µM | GI50 (HOP-92 NSCLC) 2.94 µM | GI50 (HS 578T breast) > 100 µM | GI50 (HT29 colon) > 100 µM | GI50 (IGROV1 ovarian) 53.7 µM | GI50 (K-562 leukemia) 44.6 µM | GI50 (KM12 colon) 51.7 µM | GI50 (LOX IMVI melanoma) 56.9 µM | GI50 (M14 melanoma) 82 µM | GI50 (MALME-3M melanoma) > 100 µM | GI50 (MCF7 breast) 79.6 µM | GI50 (MDA-MB-231 breast) > 100 µM | GI50 (MDA-MB-435) 78.9 µM | GI50 (MOLT-4 leukemia) > 100 µM | GI50 (NCI-H226 lung) > 100 µM | GI50 (NCI-H23 lung) 46.4 µM | GI50 (NCI-H460 lung) > 100 µM | GI50 (NCI-H522 lung) 41.6 µM | GI50 (NCI/ADR-RES ovarian) > 100 µM | GI50 (OVCAR-3 ovarian) 64.4 µM | GI50 (OVCAR-4 ovarian) 28.7 µM | GI50 (OVCAR-5 ovarian) > 100 µM | GI50 (OVCAR-8 ovarian) > 100 µM | GI50 (PC-3 prostate) 16 µM | GI50 (RPMI-8226 leukemia) 25 µM | GI50 (RXF 393 renal) > 100 µM | GI50 (SF-268 CNS) > 100 µM | GI50 (SF-295 CNS) > 100 µM | GI50 (SF-539 CNS) > 100 µM | GI50 (SK-MEL-2 melanoma) > 100 µM | GI50 (SK-MEL-28 melanoma) > 100 µM | GI50 (SK-MEL-5 melanoma) 67.8 µM | GI50 (SK-OV-3 ovarian) > 100 µM | GI50 (SN12C renal) > 100 µM | GI50 (SNB-19 CNS) > 100 µM | GI50 (SNB-75 CNS) > 100 µM | GI50 (SR leukemia) > 100 µM | GI50 (SW-620 colon) > 100 µM | GI50 (T-47D breast) 37.8 µM | GI50 (TK-10 renal) > 100 µM | GI50 (U251 CNS) > 100 µM | GI50 (UACC-257 melanoma) 45.5 µM | GI50 (UACC-62 melanoma) 74.1 µM | GI50 (UO-31 renal) 39.1 µM

CC(Nc1c(C#N)cnc2ccc(-c3cncc(O)c3)cc12)c1ccccc1 (stereo not drawn)
4.82 µM: TGI (HS 578T breast)
13.2 µM: TGI (NCI-H226 lung)
6.44 µM: TGI (SK-MEL-2 melanoma)
7.66 µM: TGI (SNB-19 CNS)
3.91 µM: TGI (IGROV1 ovarian)
12.6 µM: TGI (EKVX NSCLC)
14.8 µM: TGI (HCC-2998 colon)
16 µM: TGI (HOP-62 NSCLC)
12 µM: TGI (SF-268 CNS)
4.54 µM: TGI (BT-549 breast)
7.88 µM: TGI (NCI-H23 lung)
11.5 µM: TGI (HCT-15 colon)
12.2 µM: TGI (KM12 colon)
11.9 µM: TGI (MDA-MB-231 breast)
11 µM: TGI (SF-539 CNS)
5.84 µM: TGI (OVCAR-3 ovarian)
11.6 µM: TGI (M14 melanoma)
3.4 µM: TGI (MALME-3M melanoma)
17.6 µM: TGI (SNB-75 CNS)
10.8 µM: TGI (SK-MEL-28 melanoma)
15.5 µM: TGI (MDA-MB-435)
23.5 µM: TGI (NCI/ADR-RES ovarian)
18 µM: TGI (A498 renal)
45.6 µM: TGI (UACC-257 melanoma)
10.7 µM: TGI (ACHN renal) | TGI (SK-OV-3 ovarian)
10.6 µM: TGI (DU-145 prostate)
active: GI50 (HOP-92 NSCLC) 0.409 µM | GI50 (MALME-3M melanoma) 0.407 µM | GI50 (UO-31 renal) 0.408 µM
> 100 µM: TGI (CCRF-CEM leukemia) | TGI (HL-60(TB) leukemia) | TGI (HT29 colon) | TGI (K-562 leukemia) | TGI (MOLT-4 leukemia) | TGI (PC-3 prostate) | TGI (SR leukemia)
11.7 µM: TGI (SF-295 CNS)
inactive: GI50 (786-0 renal) 2.74 µM | GI50 (A498 renal) 2.72 µM | GI50 (A549 NSCLC) 3.57 µM | GI50 (ACHN renal) 1.4 µM | GI50 (BT-549 breast) 0.547 µM | GI50 (CAKI-1 renal) 2.24 µM | GI50 (CCRF-CEM leukemia) 2.4 µM | GI50 (COLO 205 colon) 14.9 µM | GI50 (DU-145 prostate) 1.48 µM | GI50 (EKVX NSCLC) 2.07 µM | GI50 (HCC-2998 colon) 3.73 µM | GI50 (HCT-116 colon) 2.4 µM | GI50 (HCT-15 colon) 1.69 µM | GI50 (HL-60(TB) leukemia) 4.22 µM | GI50 (HOP-62 NSCLC) 2.39 µM | GI50 (HS 578T breast) 1.08 µM | GI50 (HT29 colon) 18.1 µM | GI50 (IGROV1 ovarian) 0.948 µM | GI50 (K-562 leukemia) 2.51 µM | GI50 (KM12 colon) 3.09 µM | GI50 (LOX IMVI melanoma) 1.31 µM | GI50 (M14 melanoma) 2.08 µM | GI50 (MCF7 breast) 1.91 µM | GI50 (MDA-MB-231 breast) 1.67 µM | GI50 (MDA-MB-435) 2.94 µM | GI50 (MOLT-4 leukemia) 2.11 µM | GI50 (NCI-H226 lung) 1.99 µM | GI50 (NCI-H23 lung) 1.86 µM | GI50 (NCI-H460 lung) 2.57 µM | GI50 (NCI-H522 lung) 2.31 µM | GI50 (NCI/ADR-RES ovarian) 3.36 µM | GI50 (OVCAR-3 ovarian) 1.05 µM | GI50 (OVCAR-4 ovarian) 1.59 µM | GI50 (OVCAR-5 ovarian) 4.3 µM | GI50 (OVCAR-8 ovarian) 1.83 µM | GI50 (PC-3 prostate) 1.65 µM | GI50 (SF-268 CNS) 1.99 µM | GI50 (SF-295 CNS) 2.87 µM | GI50 (SF-539 CNS) 2.14 µM | GI50 (SK-MEL-2 melanoma) 2.03 µM | GI50 (SK-MEL-28 melanoma) 1.86 µM | GI50 (SK-MEL-5 melanoma) 1.24 µM | GI50 (SK-OV-3 ovarian) 3.38 µM | GI50 (SN12C renal) 0.721 µM | GI50 (SNB-19 CNS) 1.9 µM | GI50 (SNB-75 CNS) 0.961 µM | GI50 (SR leukemia) 2.26 µM | GI50 (SW-620 colon) 3.56 µM | GI50 (T-47D breast) 1.68 µM | GI50 (TK-10 renal) 4.45 µM | GI50 (U251 CNS) 1.88 µM | GI50 (UACC-257 melanoma) 4.32 µM | GI50 (UACC-62 melanoma) 1.7 µM
10.2 µM: TGI (MCF7 breast)
4.16 µM: TGI (UACC-62 melanoma)
50 µM: TGI (TK-10 renal)
13.5 µM: TGI (CAKI-1 renal) | TGI (NCI-H522 lung)
6.02 µM: TGI (HOP-92 NSCLC)
8.51 µM: TGI (LOX IMVI melanoma)
36.1 µM: TGI (COLO 205 colon)
30.7 µM: TGI (OVCAR-5 ovarian)
13.8 µM: TGI (T-47D breast)
5.61 µM: TGI (UO-31 renal)
47.3 µM: TGI (A549 NSCLC)
11.4 µM: TGI (NCI-H460 lung) | TGI (SW-620 colon)
10.4 µM: TGI (786-0 renal)
15.4 µM: TGI (OVCAR-8 ovarian)
12.4 µM: TGI (HCT-116 colon)
6.68 µM: TGI (SN12C renal)
9.49 µM: TGI (OVCAR-4 ovarian)
2.57 µM: TGI (SK-MEL-5 melanoma)
17.1 µM: TGI (U251 CNS)
